In patent publication US20070142392A1, “Uses of rifamycins” (ActivBiotics, Inc., priority 2005, published 2007):
≈ marks a conversion by molar mass, not a printed value.

Experiments:
Assay type in all cases: cell-based
E. coli = assay: MIC values, E. coli (Tables 1-4)
E. faecalis = assay: MIC values, E. faecalis (Tables 1-4)
S. pneumo. = assay: MIC values, S. pneumo. (Tables 1-4)
H. flu = system: H. flu
S. aureus = assay: MIC values, S. aureus (Tables 1-4)

Row | Structure (SMILES) | MIC E. coli (E. coli) | MIC E. faecalis (E. faecalis) | MIC S. pneumo. (S. pneumo.) | MIC H. flu (H. flu) | MIC S. aureus (S. aureus)
1 | COC1C=COC2(C)Oc3c(C)c(O)c4c(=O)c(c5oc6cc(N7CC8C(N)C8C7)cc(O)c6nc-5c4c3C2=O)NC(=O)C(C)=CC=CC(C)C(O)C(C)C(O)C(C)C(O)C1C (centres unmarked) [Compound 20] | >8 µg/mL | >8 µg/mL | 1000 ng/mL (≈ 1.17 µM) | >8 µg/mL | 2 µg/mL (≈ 2.34 µM)
2 | CCOC(=O)NC1C2CN(c3cc(O)c4nc5c6c7c8c(C)c(O)c6c(=O)c(c-5oc4c3)NC(=O)C(C)=CC=CC(C)C(O)C(C)C(O)C(C)C(OC(C)=O)C(C)C(OC)C=COC(C)(O8)C7=O)CC21 (centres unmarked) [Compound 21] | 4 µg/mL (≈ 4.13 µM) | 0.12 µg/mL (≈ 0.124 µM) | 1 ng/mL (≈ 0.00103 µM) | 0.5 µg/mL (≈ 0.516 µM) | 0.004 µg/mL (≈ 0.00413 µM)
3 | CO[C@H]1/C=C/O[C@@]2(C)Oc3c(C)c(O)c4c(=O)c(c5oc6cc(N7CCC(NC(=O)OC(C)C)CC7)cc(O)c6nc-5c4c3C2=O)NC(=O)/C(C)=C\C=C\[C@H](C)[C@H](O)[C@@H](C)[C@@H](O)[C@@H](C)[C@H](OC(C)=O)[C@@H]1C [Compound 22] | >8 µg/mL | 4 µg/mL (≈ 4.06 µM) | 0.25 ng/mL (≈ 0.000254 µM) | 2 µg/mL (≈ 2.03 µM) | 0.015 µg/mL (≈ 0.0152 µM)
4 | CO[C@H]1/C=C/O[C@@]2(C)Oc3c(C)c(O)c4c(=O)c(c5oc6cc(N7CCC(NS(=O)(=O)C(F)(F)F)CC7)cc(O)c6nc-5c4c3C2=O)NC(=O)/C(C)=C\C=C\[C@H](C)[C@H](O)[C@@H](C)[C@@H](O)[C@@H](C)[C@H](OC(C)=O)[C@@H]1C [Compound 23] | >8 µg/mL | 4 µg/mL (≈ 3.88 µM) | 0.12 ng/mL (≈ 0.000116 µM) | 2 µg/mL (≈ 1.94 µM) | 0.015 µg/mL (≈ 0.0145 µM)
5 | CCCC(=O)NC1CCN(c2cc(O)c3nc4c5c6c7c(C)c(O)c5c(=O)c(c-4oc3c2)NC(=O)/C(C)=C\C=C\[C@H](C)[C@H](O)[C@@H](C)[C@@H](O)[C@@H](C)[C@H](OC(C)=O)[C@H](C)[C@@H](OC)/C=C/O[C@@](C)(O7)C6=O)CC1 [Compound 24] | >8 µg/mL | 2 µg/mL (≈ 2.06 µM) | 1 ng/mL (≈ 0.00103 µM) | 2 µg/mL (≈ 2.06 µM) | 0.015 µg/mL (≈ 0.0155 µM)
6 | CO[C@H]1/C=C/O[C@@]2(C)Oc3c(C)c(O)c4c(=O)c(c5oc6cc(N7CCC(NS(C)(=O)=O)CC7)cc(O)c6nc-5c4c3C2=O)NC(=O)/C(C)=C\C=C\[C@H](C)[C@H](O)[C@@H](C)[C@@H](O)[C@@H](C)[C@H](OC(C)=O)[C@@H]1C [Compound 25] | >8 µg/mL | 2 µg/mL (≈ 2.05 µM) | 1 ng/mL (≈ 0.00102 µM) | 2 µg/mL (≈ 2.05 µM) | 0.008 µg/mL (≈ 0.00819 µM)
7 | CCCNC(=O)NC1CCN(c2cc(O)c3nc4c5c6c7c(C)c(O)c5c(=O)c(c-4oc3c2)NC(=O)/C(C)=C\C=C\[C@H](C)[C@H](O)[C@@H](C)[C@@H](O)[C@@H](C)[C@H](O)[C@H](C)[C@@H](OC)/C=C/O[C@@](C)(O7)C6=O)CC1 [Compound 26] | >8 µg/mL | 2 µg/mL (≈ 2.12 µM) | 0.12 ng/mL (≈ 0.000127 µM) | 1 µg/mL (≈ 1.06 µM) | 0.008 µg/mL (≈ 0.00849 µM)
8 | CO[C@H]1/C=C/O[C@@]2(C)Oc3c(C)c(O)c4c(=O)c(c5oc6cc(N7CCC(NS(C)(=O)=O)CC7)cc(O)c6nc-5c4c3C2=O)NC(=O)/C(C)=C\C=C\[C@H](C)[C@H](O)[C@@H](C)[C@@H](O)[C@@H](C)[C@H](O)[C@@H]1C [Compound 27] | >8 µg/mL | 1 µg/mL (≈ 1.07 µM) | 1 ng/mL (≈ 0.00107 µM) | 0.12 µg/mL (≈ 0.128 µM) | 0.015 µg/mL (≈ 0.016 µM)
9 | CCCNC(=O)NC1CCN(c2cc(O)c3nc4c5c6c7c(C)c(O)c5c(=O)c(c-4oc3c2)NC(=O)/C(C)=C\C=C\[C@H](C)[C@H](O)[C@@H](C)[C@@H](O)[C@@H](C)[C@H](OC(C)=O)[C@H](C)[C@@H](OC)/C=C/O[C@@](C)(O7)C6=O)CC1 [Compound 28] | >8 µg/mL | 1 µg/mL (≈ 1.02 µM) | 2 ng/mL (≈ 0.00203 µM) | 0.25 µg/mL (≈ 0.254 µM) | 0.03 µg/mL (≈ 0.0305 µM)
10 | CO[C@H]1/C=C/O[C@@]2(C)Oc3c(C)c(O)c4c(=O)c(c5oc6cc(N7CCC(NC(=O)OC(C)C)CC7)cc(O)c6nc-5c4c3C2=O)NC(=O)/C(C)=C\C=C\[C@H](C)[C@H](O)[C@@H](C)[C@@H](O)[C@@H](C)[C@H](O)[C@@H]1C [Compound 29] | >8 µg/mL | 2 µg/mL (≈ 2.12 µM) | 0.12 ng/mL (≈ 0.000127 µM) | 1 µg/mL (≈ 1.06 µM) | 0.008 µg/mL (≈ 0.00848 µM)
11 | COC(=O)NC1CCN(c2cc(O)c3nc4c5c6c7c(C)c(O)c5c(=O)c(c-4oc3c2)NC(=O)/C(C)=C\C=C\[C@H](C)[C@H](O)[C@@H](C)[C@@H](O)[C@@H](C)[C@H](O)[C@H](C)[C@@H](OC)/C=C/O[C@@](C)(O7)C6=O)CC1 [Compound 30] | >8 µg/mL | 1 µg/mL (≈ 1.09 µM) | 2 ng/mL (≈ 0.00219 µM) | 0.5 µg/mL (≈ 0.546 µM) | 0.015 µg/mL (≈ 0.0164 µM)
12 | CCOC(=O)NC1CCN(c2ccc3nc4c5c6c7c(C)c(O)c5c(=O)c(c-4n(C)c3c2)NC(=O)/C(C)=C\C=C\[C@H](C)[C@H](O)[C@@H](C)[C@@H](O)[C@@H](C)[C@H](O)[C@H](C)[C@@H](OC)/C=C/O[C@@](C)(O7)C6=O)CC1 [Compound 31] | 8 µg/mL (≈ 8.64 µM) | 0.25 µg/mL (≈ 0.27 µM) | 0.5 ng/mL (≈ 0.00054 µM) | 0.25 µg/mL (≈ 0.27 µM) | 0.03 µg/mL (≈ 0.0324 µM)
13 | COC(=O)NC1CCN(c2cc(O)c3nc4c5c6c7c(C)c(O)c5c(=O)c(c-4oc3c2)NC(=O)/C(C)=C\C=C\[C@H](C)[C@H](O)[C@@H](C)[C@@H](O)[C@@H](C)[C@H](OC(C)=O)[C@H](C)[C@@H](OC)/C=C/O[C@@](C)(O7)C6=O)CC1 [Compound 32] | >8 µg/mL | >8 µg/mL | 4000 ng/mL (≈ 4.18 µM) | >8 µg/mL | 2 µg/mL (≈ 2.09 µM)
14 | CO[C@H]1/C=C/O[C@@]2(C)Oc3c(C)c(O)c4c(=O)c(c5oc6cc(N7CCC(N)CC7)cc(O)c6nc-5c4c3C2=O)NC(=O)/C(C)=C\C=C\[C@H](C)[C@H](O)[C@@H](C)[C@@H](O)[C@@H](C)[C@H](OC(C)=O)[C@@H]1C [Compound 33] | >8 µg/mL | 1 µg/mL (≈ 1.11 µM) | 0.06 ng/mL (≈ 6.67e-05 µM) | 1 µg/mL (≈ 1.11 µM) | 0.008 µg/mL (≈ 0.0089 µM)
15 | CCNC(=O)NC1CCN(c2cc(O)c3nc4c5c6c7c(C)c(O)c5c(=O)c(c-4oc3c2)NC(=O)/C(C)=C\C=C\[C@H](C)[C@H](O)[C@@H](C)[C@@H](O)[C@@H](C)[C@H](OC(C)=O)[C@H](C)[C@@H](OC)/C=C/O[C@@](C)(O7)C6=O)CC1 [Compound 34] | 8 µg/mL (≈ 8.25 µM) | 2 µg/mL (≈ 2.06 µM) | 1 ng/mL (≈ 0.00103 µM) | 0.5 µg/mL (≈ 0.515 µM) | 0.03 µg/mL (≈ 0.0309 µM)
16 | CCCS(=O)(=O)NC1CCN(c2cc(O)c3nc4c5c6c7c(C)c(O)c5c(=O)c(c-4oc3c2)NC(=O)/C(C)=C\C=C\[C@H](C)[C@H](O)[C@@H](C)[C@@H](O)[C@@H](C)[C@H](OC(C)=O)[C@H](C)[C@@H](OC)/C=C/O[C@@](C)(O7)C6=O)CC1 [Compound 35] | 8 µg/mL (≈ 7.96 µM) | 4 µg/mL (≈ 3.98 µM) | 0.25 ng/mL (≈ 0.000249 µM) | 0.5 µg/mL (≈ 0.497 µM) | 0.015 µg/mL (≈ 0.0149 µM)
17 | CCCC(=O)NC1CCN(c2cc(O)c3nc4c5c6c7c(C)c(O)c5c(=O)c(c-4oc3c2)NC(=O)/C(C)=C\C=C\[C@H](C)[C@H](O)[C@@H](C)[C@@H](O)[C@@H](C)[C@H](O)[C@H](C)[C@@H](OC)/C=C/O[C@@](C)(O7)C6=O)CC1 [Compound 36] | >8 µg/mL | 2 µg/mL (≈ 2.16 µM) | 0.03 ng/mL (≈ 3.24e-05 µM) | 0.25 µg/mL (≈ 0.27 µM) | 0.004 µg/mL (≈ 0.00431 µM)
18 | CCNC(=O)NC1CCN(c2cc(O)c3nc4c5c6c7c(C)c(O)c5c(=O)c(c-4oc3c2)NC(=O)/C(C)=C\C=C\[C@H](C)[C@H](O)[C@@H](C)[C@@H](O)[C@@H](C)[C@H](O)[C@H](C)[C@@H](OC)/C=C/O[C@@](C)(O7)C6=O)CC1 [Compound 37] | >8 µg/mL | 2 µg/mL (≈ 2.16 µM) | 4 ng/mL (≈ 0.00431 µM) | 0.25 µg/mL (≈ 0.269 µM) | 0.03 µg/mL (≈ 0.0323 µM)
19 | CO[C@H]1/C=C/O[C@@]2(C)Oc3c(C)c(O)c4c(=O)c(c5oc6cc(N7CCC(NS(=O)(=O)C(F)(F)F)CC7)cc(O)c6nc-5c4c3C2=O)NC(=O)/C(C)=C\C=C\[C@H](C)[C@H](O)[C@@H](C)[C@@H](O)[C@@H](C)[C@H](O)[C@@H]1C [Compound 38] | >8 µg/mL | 8 µg/mL (≈ 8.09 µM) | 15 ng/mL (≈ 0.0152 µM) | 0.25 µg/mL (≈ 0.253 µM) | 0.12 µg/mL (≈ 0.121 µM)
20 | CO[C@H]1/C=C/O[C@@]2(C)Oc3c(C)c(O)c4c(=O)c(c5oc6cc(N7CCC(N)CC7)cc(O)c6nc-5c4c3C2=O)NC(=O)/C(C)=C\C=C\[C@H](C)[C@H](O)[C@@H](C)[C@@H](O)[C@@H](C)[C@H](O)[C@@H]1C [Compound 39] | >8 µg/mL | 2 µg/mL (≈ 2.33 µM) | 1 ng/mL (≈ 0.00117 µM) | 0.25 µg/mL (≈ 0.292 µM) | 0.03 µg/mL (≈ 0.035 µM)
21 | CCOC(=O)N1CCCC2CN(c3cc(O)c4nc5c6c7c8c(C)c(O)c6c(=O)c(c-5oc4c3)NC(=O)C(C)=CC=CC(C)C(O)C(C)C(O)C(C)C(OC(C)=O)C(C)C(OC)C=COC(C)(O8)C7=O)CC21 (centres unmarked) [Compound 40] | >8 µg/mL | 1 µg/mL (≈ 1 µM) | 8 ng/mL (≈ 0.00802 µM) | 0.5 µg/mL (≈ 0.501 µM) | 0.06 µg/mL (≈ 0.0602 µM)
22 | COCCOC(=O)NC1CCN(c2cc(O)c3nc4c5c6c7c(C)c(O)c5c(=O)c(c-4oc3c2)NC(=O)/C(C)=C\C=C\[C@H](C)[C@H](O)[C@@H](C)[C@@H](O)[C@@H](C)[C@H](OC(C)=O)[C@H](C)[C@@H](OC)/C=C/O[C@@](C)(O7)C6=O)CC1 [Compound 41] | >8 µg/mL | >8 µg/mL | 0.5 ng/mL (≈ 0.000499 µM) | 2 µg/mL (≈ 2 µM) | 0.25 µg/mL (≈ 0.25 µM)
